Results on 16 molecules are retold here after patent US11986532B2 (Arvinas Operations, Inc., priority 2021, dated 2024).

The test deals with T1, BCL6 (Homo sapiens, UniProt P41182).
T1 construct: endogenous in cells; host or cells: T47D breast cancer epithelial cells
Briefly: Immunofluorescence protocol for high content imaging of BCL6 (degradation) in T47D cells, 3 days compound treatment. It is filed as cell-based. Particulars: T47D cells, 3 days compound treatment; for DC50: read-out: Mean DC50 (nM)* category; for Dmax: read-out: Mean Dmax (%)** category. In a few lines:
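T47D, RPMI1640/10% FBS; cpd 11-pt 3-fold, top 0.1 or 1 μM final; 3 d, 37° C. Fix 4% PFA, perm 0.1% Triton, block 3% BSA; anti-BCL6 1:300 o/n 4° C; Alexa-488 2°, CellMask-647, Hoechst. Imaged 10×, 4 fields/well.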

Take `CNC(=O)COc1cc2cc(Nc3nc(N4CCN(C(=O)C5CCC6(CCN(c7ccc8c(c7)CN(C7CCC(=O)NC7=O)C8=O)C6)C5)CC4)ncc3Cl)ccc2n(C(C)C)c1=O` (centres unmarked) [Compound 66, 2-[(6-{[5-chloro-2-(4-{2-[2-(2,6-dioxopiperidin-3-yl)-1-oxo-2,3-dihydro-1H-isoindol-5-yl]-2-azaspiro[4.4]nonane-7-carbonyl}piperazin-1-yl)pyrimidin-4-yl]amino}-2-oxo-1-(propan-2-yl)-1,2-dihydroquinolin-3-yl)oxy]-N-methylacetamide]: the DC50 was less than 10 nM and the Dmax was less than 50%.
The corresponding values for `CNC(=O)COc1cc2cc(Nc3nc(N4CCN(CC5CCN(c6ccc7c(c6)CN(C6CCC(=O)NC6=O)C7=O)CC5)CC4)ncc3Cl)ccc2n(C)c1=O` (centres unmarked) [Compound 67, 2-{[6-({5-chloro-2-[4-({1-[2-(2,6-dioxopiperidin-3-yl)-1-oxo-2,3-dihydro-1H-isoindol-5-yl]piperidin-4-yl}methyl)piperazin-1-yl]pyrimidin-4-yl}amino)-1-methyl-2-oxo-1,2-dihydroquinolin-3-yl]oxy}-N-methylacetamide] are less than 10 nM and 50 to 70%.
The corresponding values for `CNC(=O)COc1cc2cc(Nc3nc(N4CCN(C(C)(C)C5CCN(c6cc7c(cc6F)C(=O)N(C6CCC(=O)NC6=O)C7)CC5)CC4)ncc3Cl)ccc2n(C(C)C)c1=O` (centres unmarked) [Compound 68, 2-{[6-({5-chloro-2-[4-(2-{1-[2-(2,6-dioxopiperidin-3-yl)-6-fluoro-1-oxo-2,3-dihydro-1H-isoindol-5-yl]piperidin-4-yl}propan-2-yl)piperazin-1-yl]pyrimidin-4-yl}amino)-2-oxo-1-(propan-2-yl)-1,2-dihydroquinolin-3-yl]oxy}-N-methylacetamide] are less than 10 nM and 50 to 70%.
Turning to `CNC(=O)COc1cc2cc(Nc3nc(N4CCC(OC5CCC6(CC5)CN(c5ccc7c(c5)C(=O)N(C5CCC(=O)NC5=O)C7)C6)CC4)ncc3Cl)ccc2n(C(C)C)c1=O` (centres unmarked) [Compound 69, 2-{[6-({5-chloro-2-[4-({2-[2-(2,6-dioxopiperidin-3-yl)-3-oxo-2,3-dihydro-1H-isoindol-5-yl]-2-azaspiro[3.5]nonan-7-yl}oxy)piperidin-1-yl]pyrimidin-4-yl}amino)-2-oxo-1-(propan-2-yl)-1,2-dihydroquinolin-3-yl]oxy}-N-methylacetamide], the DC50 was less than 10 nM and the Dmax was in the range of 50 to 70%.
Taken in the same sequence, the figures for `CNC(=O)COc1cc2cc(Nc3nc(N4CCC(OC5CCC6(CC5)CN(c5cccc7c5C(=O)N(C5CCC(=O)NC5=O)C7)C6)CC4)ncc3Cl)ccc2n(C(C)C)c1=O` (centres unmarked) [Compound 70, 2-{[6-({5-chloro-2-[4-({2-[2-(2,6-dioxopiperidin-3-yl)-3-oxo-2,3-dihydro-1H-isoindol-4-yl]-2-azaspiro[3.5]nonan-7-yl}oxy)piperidin-1-yl]pyrimidin-4-yl}amino)-2-oxo-1-(propan-2-yl)-1,2-dihydroquinolin-3-yl]oxy}-N-methylacetamide] were 10 to 50 nM and 50 to 70%.
Regarding `CNC(=O)COc1cc2cc(Nc3nc(N4CCC(CN5CCC6(CC5)CN(c5ccc7c(c5F)CN(C5CCC(=O)NC5=O)C7=O)C6)CC4)ncc3Cl)ccc2n(C(C)C)c1=O` (centres unmarked) [Compound 71, 2-{[6-({5-chloro-2-[4-({2-[2-(2,6-dioxopiperidin-3-yl)-4-fluoro-1-oxo-2,3-dihydro-1H-isoindol-5-yl]-2,7-diazaspiro[3.5]nonan-7-yl}methyl)piperidin-1-yl]pyrimidin-4-yl}amino)-2-oxo-1-(propan-2-yl)-1,2-dihydroquinolin-3-yl]oxy}-N-methylacetamide], the DC50 is less than 10 nM and the Dmax was in the range of 50 to 70%.
For the molecule `CNC(=O)COc1cc2cc(Nc3nc(N4CCC(O[C@H]5C[C@H](N6CCC(c7ccc8c(c7OC)CN(C7CCC(=O)NC7=O)C8=O)CC6)C5)CC4)ncc3Cl)ccc2n(C(C)C)c1=O` (some centres unmarked) [Compound 72, 2-[[6-[[5-chloro-2-[4-[3-[4-[2-(2,6-dioxo-3-piperidyl)-4-methoxy-1-oxo-isoindolin-5-yl]-1-piperidyl]cyclobutoxy]-1-piperidyl]pyrimidin-4-yl]amino]-1-isopropyl-2-oxo-3-quinolyl]oxy]-N-methyl-acetamide], the DC50 is less than 10 nM and the Dmax lay within 50 to 70%.
The corresponding values for `CNC(=O)COc1cc2cc(Nc3nc(N4CCC(F)(CN5CCC6(CC5)CCN(c5cc(F)cc7c5CN(C5CCC(=O)NC5=O)C7=O)CC6)CC4)ncc3Cl)ccc2n(C(C)C)c1=O` (centres unmarked) [Compound 73, 2-{[6-({5-chloro-2-[4-({9-[2-(2,6-dioxopiperidin-3-yl)-6-fluoro-1-oxo-2,3-dihydro-1H-isoindol-4-yl]-3,9-diazaspiro [5.5]undecan-3-yl}methyl)-4-fluoropiperidin-1-yl]pyrimidin-4-yl}amino)-2-oxo-1-(propan-2-yl)-1,2-dihydroquinolin-3-yl]oxy}-N-methylacetamide] are less than 10 nM and 50 to 70%.
As to `CNC(=O)COc1cc2cc(Nc3nc(N4CCN(C(C)(C)C5CCC6(CCN(c7ccc8c(c7)CN(C7CCC(=O)NC7=O)C8=O)C6)C5)CC4)ncc3Cl)ccc2n(C(C)C)c1=O` (centres unmarked) [Compound 74, 2-{[6-({5-chloro-2-[4-(2-{2-[2-(2,6-dioxopiperidin-3-yl)-1-oxo-2,3-dihydro-1H-isoindol-5-yl]-2-azaspiro[4.4]nonan-7-yl}propan-2-yl)piperazin-1-yl]pyrimidin-4-yl}amino)-2-oxo-1-(propan-2-yl)-1,2-dihydroquinolin-3-yl]oxy}-N-methylacetamide], the DC50 was less than 10 nM and the maximal degradation (Dmax) is less than 50%.
The corresponding values for `CNC(=O)COc1cc2cc(Nc3nc(N4CCN(CC5CCC6(CCN(c7ccc8c(c7)CN(C7CCC(=O)NC7=O)C8=O)C6)C5)CC4)ncc3Cl)ccc2n(C(C)C)c1=O` (centres unmarked) [Compound 75, 2-{[6-({5-chloro-2-[4-({2-[2-(2,6-dioxopiperidin-3-yl)-1-oxo-2,3-dihydro-1H-isoindol-5-yl]-2-azaspiro[4.4]nonan-7-yl}methyl)piperazin-1-yl]pyrimidin-4-yl}amino)-2-oxo-1-(propan-2-yl)-1,2-dihydroquinolin-3-yl]oxy}-N-methylacetamide] are less than 10 nM and 50 to 70%.
For `CNC(=O)COc1cc2cc(Nc3nc(N4CCN(C(C)(C)C5CCN(c6cc(F)c7c(c6)CN(C6CCC(=O)NC6=O)C7=O)CC5)CC4)ncc3Cl)ccc2n(C(C)C)c1=O` (centres unmarked) [Compound 76, 2-{[6-({5-chloro-2-[4-(2-{1-[2-(2,6-dioxopiperidin-3-yl)-7-fluoro-1-oxo-2,3-dihydro-1H-isoindol-5-yl]piperidin-4-yl}propan-2-yl)piperazin-1-yl]pyrimidin-4-yl}amino)-2-oxo-1-(propan-2-yl)-1,2-dihydroquinolin-3-yl]oxy}-N-methylacetamide], the half-maximal degradation concentration (DC50) was less than 10 nM and the Dmax was 50 to 70%.
Take `CNC(=O)COc1cc2cc(Nc3nc(N4CCN(C(C)(C)C5CCN(c6cc7c(c(OC)c6)C(=O)N(C6CCC(=O)NC6=O)C7)CC5)CC4)ncc3Cl)ccc2n(C(C)C)c1=O` (centres unmarked) [Compound 77, 2-{[6-({5-chloro-2-[4-(2-{1-[2-(2,6-dioxopiperidin-3-yl)-7-methoxy-1-oxo-2,3-dihydro-1H-isoindol-5-yl]piperidin-4-yl}propan-2-yl)piperazin-1-yl]pyrimidin-4-yl}amino)-2-oxo-1-(propan-2-yl)-1,2-dihydroquinolin-3-yl]oxy}-N-methylacetamide]: the DC50 is less than 10 nM and the Dmax was 50 to 70%.
For the molecule `CNC(=O)COc1cc2cc(Nc3nc(N4CCN(C(C)(C)C5CCN(c6ccc7c(c6OC)CN(C6CCC(=O)NC6=O)C7=O)CC5)CC4)ncc3Cl)ccc2n(C(C)C)c1=O` (centres unmarked) [Compound 78, 2-{[6-({5-chloro-2-[4-(2-{1-[2-(2,6-dioxopiperidin-3-yl)-4-methoxy-1-oxo-2,3-dihydro-1H-isoindol-5-yl]piperidin-4-yl}propan-2-yl)piperazin-1-yl]pyrimidin-4-yl}amino)-2-oxo-1-(propan-2-yl)-1,2-dihydroquinolin-3-yl]oxy}-N-methylacetamide], the DC50 was less than 10 nM and the Dmax is less than 50%.
The corresponding values for `CNC(=O)COc1cc2cc(Nc3nc(N4CCC(O[C@H]5C[C@H](N6CCC(c7cc8c(cc7F)C(=O)N(C7CCC(=O)NC7=O)C8)CC6)C5)CC4)ncc3Cl)ccc2n(C(C)C)c1=O` (some centres unmarked) [Compound 79, 2-({6-[(5-chloro-2-{4-[(1r,3r)-3-{4-[2-(2,6-dioxopiperidin-3-yl)-6-fluoro-1-oxo-2,3-dihydro-1H-isoindol-5-yl]piperidin-1-yl}cyclobutoxy]piperidin-1-yl}pyrimidin-4-yl)amino]-2-oxo-1-(propan-2-yl)-1,2-dihydroquinolin-3-yl}oxy)-N-methylacetamide] are less than 10 nM and 50 to 70%.
The corresponding values for `CNC(=O)COc1cc2cc(Nc3nc(N4CCC(CN5CCC6(CC5)CN(c5cc(F)c7c(c5)CN(C5CCC(=O)NC5=O)C7=O)C6)CC4)ncc3Cl)ccc2n(C(C)C)c1=O` (centres unmarked) [Compound 80, 2-{[6-({5-chloro-2-[4-({2-[2-(2,6-dioxopiperidin-3-yl)-7-fluoro-1-oxo-2,3-dihydro-1H-isoindol-5-yl]-2,7-diazaspiro[3.5]nonan-7-yl}methyl)piperidin-1-yl]pyrimidin-4-yl}amino)-2-oxo-1-(propan-2-yl)-1,2-dihydroquinolin-3-yl]oxy}-N-methylacetamide] are less than 10 nM and 50 to 70%.
`CNC(=O)COc1cc2cc(Nc3nc(N4CCC(O[C@H]5C[C@H](N6CCC(c7ccc8c(c7F)CN(C7CCC(=O)NC7=O)C8=O)CC6)C5)CC4)ncc3Cl)ccc2n(C(C)C)c1=O` (some centres unmarked) [Compound 81, 2-({6-[(5-chloro-2-{4-[(1r,3r)-3-{4-[2-(2,6-dioxopiperidin-3-yl)-4-fluoro-1-oxo-2,3-dihydro-1H-isoindol-5-yl]piperidin-1-yl}cyclobutoxy]piperidin-1-yl}pyrimidin-4-yl)amino]-2-oxo-1-(propan-2-yl)-1,2-dihydroquinolin-3-yl}oxy)-N-methylacetamide]: the half-maximal degradation concentration (DC50) is less than 10 nM and the Dmax lay in the range of 50 to 70%.

In general, DC50 refers to the concentration at which degradation of the target reaches its halfway point. One may read the Dmax as the largest share of the target that was removed.
